# Reference: article PMC9768625, “Is the vesicular nucleotide transporter a molecular target of eicosapentaenoic acid?” (Frontiers in Pharmacology, 2022)
# Biological target: T1, V-ATPase (vacuolar H^+-ATPase), purified from chromaffin granules (Bos taurus, UniProt P23956+Q29466)
# T1 construct: gene ATP6V0C; purified chromaffin granule V-ATPase in reconstituted proteoliposomes (multi-subunit complex; subunits A, B and c indicated)
# Assay: colorimetric Mg-ATPase (Pi release) assay of proteoliposomes containing purified V-ATPase, con B at […]
# Assay type: biochemical
# Settings: proteoliposomes with purified v-atpase
structure (smiles),measurement,value
"C/C=C/[C@H]1O[C@@](O)([C@@H](C)[C@H](O)[C@H](C)[C@H]2OC(=O)/C(OC)=C/C(C)=C/[C@@H](C)[C@@H](O)[C@@H](C)[C@@H](O)[C@H](C)C/C(C)=C/C=C/[C@@H]2OC)C[C@@H](O[C@H]2C[C@@H](O)[C@H](OC(N)=O)[C@@H](C)O2)[C@@H]1C [con B, concanamycin B]",% of ATPase activity sensitive at 1 μM,> 95 % of ATPase activity sensitive at 1 μM
